Experimental findings from patent publication US20160000849A1, “COMPOSITION FOR REMEDYING OR TREATING RHEUMATOID ARTHRITIS AND OSTEOARTHRITIS” (HANPOONG PHARM & FOODS CO., LTD., priority 2013, published 2016) are described below.

The structures appear in SMILES notation. Where only a bound is given, the exact number is not on record here.

The subject of this series is normal 293T cells, rat chondrocytes and human chondrocytes (HTB-94). The method, then:
The stabilities of glucosamine-HCl, glucosamine-sulfate, celecoxib and HPL-1 were analyzed by an MTT assay using normal 293T cells, rat chondrocytes and human chondrocytes (HTB-94).

Turning to `Cc1ccc(-c2cc(C(F)(F)F)nn2-c2ccc(S(N)(=O)=O)cc2)cc1` [celecoxib], the “concentration at which cytotoxicity was observed” value (human, rat) is not below 10000 ng/mL.

For the compound `Cl.N[C@H]1C(O)O[C@H](CO)[C@@H](O)[C@@H]1O` (stereo partly drawn) [glucosamine-HCl], the cytotoxicity entry is given as “no cytotoxicity was observed”.

On to `N[C@H]1C(O)O[C@H](CO)[C@@H](O)[C@@H]1O.O=S(=O)(O)O` (stereo partly drawn) [glucosamine-sulfate], for which the cytotoxicity entry is listed as “no cytotoxicity was observed”.
